Converted amounts (≈) assume the structure as drawn. Like-named read-outs stand apart in the source and are kept apart here.
Assays:
[1] = system: Mtb strain mc^2-7000; experiment: microbe, parasite or virus in culture; format: cell-based, Mycobacterium tuberculosis; conditions: for MIC: 6 days incubation at 37° C., resazurin, read on the 7th day; for whole Mycobacterium tuberculosis cell inhibition: preliminary studies of commercially available herbicides
[2] = biological target: Mtb AccD6 (Mycobacterium tuberculosis, UniProt P9WQH5); experiment: biochemical; format: biochemical; conditions: for IC50: 300 μM malonyl-CoA, inhibitor 10 μM to 2000 μM; for inhibition at 20 µM: read-out: inhibition at 20 uM; for Mtb AccD6 inhibition: preliminary studies of commercially available herbicides
Mtb AccD6, sequence (P9WQH5 whole entry, looked up): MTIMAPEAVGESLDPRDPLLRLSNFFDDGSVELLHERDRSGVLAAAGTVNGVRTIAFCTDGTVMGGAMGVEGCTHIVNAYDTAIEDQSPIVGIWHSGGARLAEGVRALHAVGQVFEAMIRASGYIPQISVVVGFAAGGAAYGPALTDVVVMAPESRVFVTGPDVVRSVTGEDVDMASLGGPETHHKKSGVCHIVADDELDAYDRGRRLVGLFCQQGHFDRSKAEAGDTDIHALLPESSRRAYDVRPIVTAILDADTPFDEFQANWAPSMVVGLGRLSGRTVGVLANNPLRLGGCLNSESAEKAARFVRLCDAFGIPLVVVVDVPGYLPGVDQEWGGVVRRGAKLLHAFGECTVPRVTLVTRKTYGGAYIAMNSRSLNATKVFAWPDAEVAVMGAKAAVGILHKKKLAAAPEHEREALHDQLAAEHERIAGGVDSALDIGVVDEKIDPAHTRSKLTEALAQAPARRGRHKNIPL

[3] = system: S. cerevisiae
[4] = Mycobacterium tuberculosis, 144 h, read-out: MIC

Clc1ccc2nc(Oc3ccc(OCc4ncc[nH]4)cc3)cnc2c1 [NZ-273, 6-chloro-2-[4-(1H-imidazol-2-ylmethoxy)phenoxy]quinoxaline] gave an MIC [1, 4] greater than 25 µM and an IC50 ([2]; read-out: IC50) of 7.9 µM.

In the case of O=C(COc1ccc(Oc2cnc3cc(Cl)ccc3n2)cc1)NS(=O)(=O)C(F)(F)F [NZ-275, 2-{4-[(6-chloroquinoxalin-2-yl)oxy]phenoxy}-N-trifluoromethanesulfonylacetamide], the MIC [1, 4] is reported as 12.5 µM (≈ 5.77 µg/mL) and the IC50 ([2]; read-out: IC50) is reported as 3.8 µM.

O=C(COc1ccc(Oc2cnc3cc(Cl)ccc3n2)cc1)NS(=O)(=O)c1ccccc1 [NZ-276, N-(benzenesulfonyl)-2-{4-[(6-chloroquinoxalin-2-yl)oxy]phenoxy}acetamide] was tested, and the MIC [1, 4] was 3.1 µM (≈ 1.46 µg/mL) and the IC50 ([2]; read-out: IC50) was 7.3 µM.

With O=C(COc1ccc(Oc2cnc3cc(Cl)ccc3n2)cc1)N1CCNCC1 [NZ-277, 2-{4-[(6-chloroquinoxalin-2-yl)oxy]phenoxy}-1-(piperazin-1-yl)ethan-1-one] the MIC [1, 4] was 12.5 µM (≈ 4.99 µg/mL) and the IC50 ([2]; read-out: IC50) was 5.6 µM.

For CN1CCN(C(=O)COc2ccc(Oc3cnc4cc(Cl)ccc4n3)cc2)CC1 [NZ-278, 2-{4-[(6-chloroquinoxalin-2-yl)oxy]phenoxy}-1-(4-methylpiperazin-1-yl)ethan-1-one], the MIC [1, 4] was 3.1 µM (≈ 1.28 µg/mL) and the IC50 ([2]; read-out: IC50) was 1.1 µM.

CN(O)C(=O)COc1ccc(Oc2cnc3cc(Cl)ccc3n2)cc1 [NZ-279, 2-{4-[(6-chloroquinoxalin-2-yl)oxy]phenoxy}-N-hydroxy-N-methylacetamide] was tested, and the MIC [1, 4] was greater than 50 µM and the IC50 ([2]; read-out: IC50) was 0.8 µM.

COC(=O)CCc1ccc(Oc2nc3ccc(Cl)cc3s2)cc1 [NZ-280, methyl 3-{4-[(6-chloro-1,3-benzothiazol-2-yl)oxy]phenyl}propanoate] gave an MIC [1, 4] of 6 µM (≈ 2.09 µg/mL) and an inhibition at 20 µM [2] of 50%.

COC(=O)/C=C/c1ccc(Oc2nc3ccc(Cl)cc3s2)cc1 [NZ-281, methyl (2E)-3-{4-[(6-chloro-1,3-benzothiazol-2-yl)oxy]phenyl}prop-2-enoate] showed an MIC [1, 4] of 50 µM (≈ 17.3 µg/mL) and an inhibition at 20 µM [2] of 30%.

For O=C(O)CCc1ccc(Oc2nc3ccc(Cl)cc3s2)cc1 [NZ-282, 3-{4-[(6-chloro-1,3-benzothiazol-2-yl)oxy]phenyl}propanoic acid], the MIC [1] was “Not Active” and the inhibition at 20 µM [2] was 40%.

O=C(O)/C=C/c1ccc(Oc2nc3ccc(Cl)cc3s2)cc1 [NZ-283, (2E)-3-{4-[(6-chloro-1,3-benzothiazol-2-yl)oxy]phenyl}prop-2-enoic acid] gave an MIC [1, 4] of 12 µM (≈ 3.98 µg/mL) and an inhibition at 20 µM [2] of 33%.

For COC(=O)c1ccc(Oc2nc3ccc(Cl)cc3s2)cc1 [NZ-285, methyl 4-[(6-chloro-1,3-benzothiazol-2-yl)oxy]benzoate], the MIC [1, 4] was 12 µM (≈ 3.84 µg/mL) and the IC50 [2] was “Not Active”.

Molecule O=C(COc1ccc(Oc2cnc3cc(Cl)ccc3n2)cc1)NO [NZ-286, 2-{4-[(6-chloroquinoxalin-2-yl)oxy]phenoxy}-N-hydroxyacetamide] has an MIC [1, 4] of 3 µM (≈ 1.04 µg/mL) and an IC50 ([2]; read-out: IC50) of 1.4 µM.

O=C(O)c1ccc(Oc2nc3ccc(Cl)cc3s2)cc1 [NZ-288, 4-[(6-chloro-1,3-benzothiazol-2-yl)oxy]benzoic acid] gave an MIC [1, 4] of 25 µM (≈ 7.64 µg/mL) and an IC50 ([2]; read-out: IC50) of 12 µM.

Molecule Cc1cccc(Oc2nc3ccc(Cl)cc3s2)c1 [NZ-291, 6-chloro-2-(3-methylphenoxy)-1,3-benzothiazole] has an MIC [1, 4] of 25 µM (≈ 6.89 µg/mL) and an inhibition at 20 µM [2] of 30%.

In the case of Clc1ccc2nc(Oc3ccccc3)sc2c1 [NZ-292, 6-chloro-2-phenoxy-1,3-benzothiazole], the MIC [1, 4] is reported as 12 µM (≈ 3.14 µg/mL) and the inhibition at 20 µM [2] is reported as 42%.

COC(=O)Cc1ccc(Oc2nc3ccc(Cl)cc3o2)cc1 [NZ-302, methyl 2-{4-[(6-chloro-1,3-benzoxazol-2-yl)oxy]phenyl}acetate] was tested, and the MIC [1, 4] was 3 µM and the inhibition at 20 µM [2] was 50%.

CONC(=O)Nc1ccc(Oc2cnc3cc(Cl)ccc3n2)cc1 [NZ-344, 1-{4-[(6-chloroquinoxalin-2-yl)oxy]phenyl}-3-methoxyurea] showed an MIC [1, 4] of 25 µM (≈ 8.62 µg/mL) and an IC50 ([2]; read-out: IC50) of 4.1 µM.

CC(C)(C)OC(=O)NCc1ccc(Oc2nc3ccc(Cl)cc3s2)cc1 [NZ-347, tert-butyl N-({4-[(6-chloro-1,3-benzothiazol-2-yl)oxy]phenyl}methyl)carbamate] was tested, and the MIC [1, 4] was 15 µM (≈ 5.86 µg/mL), the IC50 [2] was “Not Active” and the “concentrations at which not toxic, s. cerevisiae cytotoxicity” value (shortened to “concentrations at which not toxic”) [3] was no less than 100 µM.

NCc1ccc(Oc2nc3ccc(Cl)cc3s2)cc1 [NZ-348, {4-[(6-chloro-1,3-benzothiazol-2-yl)oxy]phenyl}methanamine] was tested, and the MIC [1, 4] was 2 µM (≈ 0.582 µg/mL), the IC50 [2] was “Not Active” and the “concentrations at which not toxic” value [3] was 25 to 50 µM.

For CN(C)C(=O)NCc1ccc(Oc2nc3ccc(Cl)cc3s2)cc1 [NZ-349, 1-({4-[(6-chloro-1,3-benzothiazol-2-yl)oxy]phenyl}methyl)-3,3-dimethylurea], the MIC [1, 4] was 8 µM (≈ 2.89 µg/mL), the IC50 ([2]; read-out: IC50) was 7 µM and the “concentrations at which not toxic” value [3] was no less than 100 µM.

In the case of CNC(=O)NCc1ccc(Oc2nc3ccc(Cl)cc3s2)cc1 [NZ-350, 1-({4-[(6-chloro-1,3-benzothiazol-2-yl)oxy]phenyl}methyl)-3-methylurea], the MIC [1] is reported as “Not Active”, the IC50 ([2]; read-out: IC50) is reported as 1.6 µM and the “concentrations at which not toxic” value [3] is reported as no less than 100 µM.

In the case of CC(C)(C)OC(=O)Nc1ccc(Oc2nc3ccc(Cl)cc3s2)cc1 [NZ-351, tert-butyl N-{4-[(6-chloro-1,3-benzothiazol-2-yl)oxy]phenyl}carbamate], the MIC [1] is reported as “Not Active”, the IC50 [2] is reported as “Not Active” and the “concentrations at which not toxic” value [3] is reported as no less than 100 µM.

Nc1ccc(Oc2nc3ccc(Cl)cc3s2)cc1 [NZ-352, 4-[(6-chloro-1,3-benzothiazol-2-yl)oxy]aniline] was tested, and the MIC [1, 4] was 1.5 µM (≈ 0.415 µg/mL), the IC50 [2] was “Not Active” and the “concentrations at which not toxic” value [3] was 25 to 50 µM.

With CNC(=O)Nc1ccc(Oc2nc3ccc(Cl)cc3s2)cc1 [NZ-353, 1-{4-[(6-chloro-1,3-benzothiazol-2-yl)oxy]phenyl}-3-methylurea] the MIC [1] was “Not Active”, the IC50 ([2]; read-out: IC50) was 4 µM and the “concentrations at which not toxic” value [3] was no less than 100 µM.

CN(C)C(=O)Nc1ccc(Oc2nc3ccc(Cl)cc3s2)cc1 [NZ-354, 1-{4-[(6-chloro-1,3-benzothiazol-2-yl)oxy]phenyl}-3,3-dimethylurea] was tested, and the MIC [1, 4] was 1 µM (≈ 0.348 µg/mL), the IC50 ([2]; read-out: IC50) was 7.3 µM and the “concentrations at which not toxic” value [3] was 50 to 100 µM.

With COC(=O)C(OC)c1ccc(Oc2nc3ccc(Cl)cc3s2)cc1 (stereo not drawn) [NZ-355, methyl 2-{4-[(6-chloro-1,3-benzothiazol-2-yl)oxy]phenyl}-2-methoxyacetate] the MIC [1, 4] was 4.5 µM (≈ 1.64 µg/mL), the IC50 ([2]; read-out: IC50) was 20 µM and the “concentrations at which not toxic” value [3] was no less than 100 µM.

CC(C)NC(=O)Cc1ccc(Oc2nc3cc(F)c(F)cc3s2)cc1 [NZ-403, 2-{4-[(5,6-difluoro-1,3-benzothiazol-2-yl)oxy]phenyl}-N-(propan-2-yl)acetamide] gave an MIC [1, 4] of 1.24 µM (≈ 0.449 µg/mL) and an IC50 ([2]; read-out: IC50) of 0.16 µM.

With CC(C)NC(=O)Cn1ccc(Oc2nc3ccc(Cl)cc3s2)cc1=O [NZ-404, 2-{4-[(6-chloro-1,3-benzothiazol-2-yl)oxy]-2-oxo-1,2-dihydropyridin-1-yl}-N-(propan-2-yl)acetamide] the “% at 50 uM” value [1] was 38% at 50 uM and the IC50 ([2]; read-out: IC50) was 14.4 µM.

Molecule CC(C)NC(=O)Cc1ccc(Oc2nc3ccc(F)cc3s2)cc1O [NZ-405, 2-{4-[(6-fluoro-1,3-benzothiazol-2-yl)oxy]-2-hydroxyphenyl}-N-(propan-2-yl)acetamide] has an MIC [1, 4] of 17.5 µM (≈ 6.31 µg/mL) and an IC50 ([2]; read-out: IC50) of 0.15 µM.

In the case of CC(C)NC(=O)Cc1ccc(O)cc1Oc1nc2ccc(F)cc2s1 [NZ-406, 2-{2-[(6-fluoro-1,3-benzothiazol-2-yl)oxy]-4-hydroxyphenyl}-N-(propan-2-yl)acetamide], the “% at 50 uM” value [1] is reported as 46% at 50 uM and the IC50 [2] is reported as “Not Active”.

In the case of CC(C)NC(=O)Cc1ccc(Oc2nc3cc(F)c(F)cc3s2)cc1O [NZ-407, 2-{4-[(5,6-difluoro-1,3-benzothiazol-2-yl)oxy]-2-hydroxyphenyl}-N-(propan-2-yl)acetamide], the MIC [1, 4] is reported as 11.7 µM (≈ 4.43 µg/mL) and the IC50 ([2]; read-out: IC50) is reported as 0.11 µM.

CNC(=O)C(C)c1ccc(Oc2nc3ccc(F)cc3s2)cc1O (stereo not drawn) [NZ-408, 2-{4-[(6-fluoro-1,3-benzothiazol-2-yl)oxy]-2-hydroxyphenyl}-N-methylpropanamide] was tested, and the MIC [1, 4] was 6.5 µM (≈ 2.25 µg/mL) and the IC50 ([2]; read-out: IC50) was 0.21 µM.

With C=CCO/N=C(\CCC)C1=C(O)C(C(=O)OC)C(C)(C)CC1=O (stereo not drawn) [alloxydim, reference compound] the “whole Mycobacterium tuberculosis cell inhibition” value [1] was “none exhibited whole Mycobacterium tuberculosis cell inhibition” and the “Mtb AccD6 inhibition” value [2] was “only haloxyfop exhibited Mtb AccD6 inhibition”.

In the case of CCCC(=NOCC)C1=C(O)CC(C2CCCSC2)CC1=O (stereo not drawn) [cycloxydim, reference compound], the “whole Mycobacterium tuberculosis cell inhibition” value [1] is reported as “none exhibited whole Mycobacterium tuberculosis cell inhibition” and the “Mtb AccD6 inhibition” value [2] is reported as “only haloxyfop exhibited Mtb AccD6 inhibition”.

With CC(Oc1ccc(Oc2ccc(Cl)cc2Cl)cc1)C(=O)O (stereo not drawn) [diclofop, reference compound] the “whole Mycobacterium tuberculosis cell inhibition” value [1] was “none exhibited whole Mycobacterium tuberculosis cell inhibition” and the “Mtb AccD6 inhibition” value [2] was “only haloxyfop exhibited Mtb AccD6 inhibition”.

For CC(Oc1ccc(Oc2ccc(C(F)(F)F)cn2)cc1)C(=O)O (stereo not drawn) [fluazifop, reference compound], the “whole Mycobacterium tuberculosis cell inhibition” value [1] was “none exhibited whole Mycobacterium tuberculosis cell inhibition” and the “Mtb AccD6 inhibition” value [2] was “only haloxyfop exhibited Mtb AccD6 inhibition”.

Work on CC(C)=NOCCOC(=O)C(C)Oc1ccc(Oc2cnc3cc(Cl)ccc3n2)cc1 (stereo not drawn) [propaquizafop, 2-{[(propan-2-ylidene)amino]oxy}ethyl 2-{4-[(6-chloroquinoxalin-2-yl)oxy]phenoxy}propanoate, reference compound] yielded an MIC [1, 4] of 1.56 µM (≈ 0.692 µg/mL) and an IC50 ([2]; read-out: IC50) of 2.1 µM.

In the case of CCC/C(=N\OCC)C1=C(O)CC(CC(C)SCC)CC1=O (stereo not drawn) [sethoxydim, reference compound], the “whole Mycobacterium tuberculosis cell inhibition” value [1] is reported as “none exhibited whole Mycobacterium tuberculosis cell inhibition” and the “Mtb AccD6 inhibition” value [2] is reported as “only haloxyfop exhibited Mtb AccD6 inhibition”.

For cyhalofop [reference compound], the “whole Mycobacterium tuberculosis cell inhibition” value [1] was “none exhibited whole Mycobacterium tuberculosis cell inhibition” and the “Mtb AccD6 inhibition” value [2] was “only haloxyfop exhibited Mtb AccD6 inhibition”.

From patent publication US10300071B2, “Compositions and methods for inhibition of mycobacteria” (priority 2014, dated 2019)
